The values below come from patent US10421718B2, “EBNA1 inhibitors and their method of use” (priority 2013, dated 2019).

For this assay, the target named is T1, His-EBNA1 (DNA binding domain of EBNA1, amino acids 459-607) (Epstein-Barr virus, UniProt P03211).
T1 construct: made in house; host or cells: E. coli
In words: Inhibition of 5′-biotin-oPL4624 binding to His-EBNA1 using Alpha Screen technology. Particulars: Alpha Screen Activity (IC50, inhibition of 5′-biotin-oPL4624 binding to His-EBNA1), 15 nM His-EBNA1, 0.2 nM bt-oPL4624, 2 hr room temperature. The essentials:
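His-tagged EBNA1 DNA-binding domain (aa 459-607, E. coli-expressed) at 15 nM with 0.2 nM biotinylated self-complementary oligo, streptavidin donor and nickel acceptor beads, in 25 mM Tris pH 7.2, 160 mM NaCl, 1 mM MgCl2. Compound 3.2 nM-100 μM final; AlphaScreen read after 2 h at room temperature, one-site dose-response fit.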
In general terms: Bead proximity is the source of the signal in Alpha formats.

T1 sequence (P03211 459-607): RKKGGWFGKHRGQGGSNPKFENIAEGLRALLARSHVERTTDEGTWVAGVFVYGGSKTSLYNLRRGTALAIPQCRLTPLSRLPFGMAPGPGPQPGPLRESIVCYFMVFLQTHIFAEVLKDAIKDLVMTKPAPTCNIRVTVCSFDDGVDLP

One may read the IC50 as the concentration needed to halve the response being measured. Low readings indicate greater potency in that assay, high ones weaker potency in that assay. For the molecule `CC(=O)Nc1cccc(C#Cc2cccc(C(=O)O)c2-c2ccc3cc[nH]c3c2)c1` [Entry 230, 3-((3-Acetamidophenyl)ethynyl)-2-(1H-indol-6-yl)benzoic acid], the IC50 is < 1 µM.
As for `Cc1ccc(C)n1-c1c(C#Cc2c[nH]c3ncccc23)cccc1C(=O)O` [Entry 196, 2-(2,5-dimethyl-pyrrol-1-yl)-3-(1H-pyrrolo[2,3-b]pyridin-3-ylethynyl)-benzoic acid], the figure is 1 to 10 µM.
